The values that follow come from US20240016772A1, “Compositions And Methods Comprising D-Cysteine Or A D-Derivative Thereof” (UNIVERSITE DE GENEVE, priority 2020, published 2024).

The structures appear in SMILES notation. “Also recorded” adds a separate entry of the source. Peptide text beside a SMILES is read from it. * marks the point of attachment. Cbz = O=C(OCc1ccccc1)*; CH2F = FC*

Assay [1] has as its system A549 cells. The experiment in a line: Proliferation of A549 cells (cell counts after 72 h / 3 days). The assay is classed as cell-based, human. The following applies: 500 μM added to culture medium, cells counted after 3 days (72 h). On the procedure: FIG. 1. Effect of L- and D-Cysteine, each tested at 500 microM, on the proliferation of A549 cells. Cells were counted 3 days after addition of L- or D-Cysteine. (CM=culture medium)
(§1) A549 lung tumor cells (FIG. 5A) or BEAS-2B normal bronchial epithelial cells (FIG. 5B) were cultured in complete media (CM) in the absence or presence of 500 μM D-cysteine (D-Cys). Cell numbers were analyzed after 72 h and after splitting of cells (p1). Cell numbers are expressed as % of cells cultured in the absence of D-cysteine. **** P<0.0001.
(§2) We therefore decided to test whether the D-cysteine-mediated inhibition of OCR could affect cell growth in a regular normal medium complemented with fetal calf serum. Most culture media used for cell culture contain 300 μM L-cystine. […] Importantly, some cancer cell lines, including HeLa cells (FIG. 4A), the MPM cell line H2052/484 (FIG. 4B), and osteosarcoma cell line 143B (not shown), were insensitive both in 2D cultures or in colony formation assays. The decrease in numbers of cells seen after 72 h exposure to D-cysteine was due to decreased cell proliferation. […] Importantly, in contrast to the results with cancer cells, normal human bronchial epithelial BEAS-2B cells were resistant to D-cysteine exposure even at very high concentration (FIG. 5B).

For assay [2], the system named is mitochondrial respiration. Put plainly: Oxygen consumption rate of cells in poor medium with single amino acids. The class given is cell-based. The following applies: cells in poor medium containing only glucose, each amino acid tested separately; data not shown.
In assay [3] the test system is A549 cells. The experiment in a line: Cell death of A549 cells exposed to D-cysteine (passage p1, caspase 3 Western blotting, zVAD-fmk, CRISPR screen selection). The assay is classed as cell-based, human. The conditions noted are these: added to D-cysteine-exposed cells; data not shown. The procedure:
as §1, §2
For these experiments a pooled lentiviral CRISPR library (Addgene) targeting 19114 human genes was used to infect A549 cells, stably expressing the Cas9 nuclease. Cells were then cultured in the presence of 0.5 mM D-cysteine, a concentration sufficient to induce A549 cell death. After 2-3 weeks, the surviving clones were recovered and the sgRNAs were amplified by PCR and sequenced using next-generation sequencing (NGS) to identify the targeted genes (FIG. 6).

The subject of the next assay is A549 lung cancer cells. Put plainly: Proliferation of A549 cells with D-cysteine and 3-MST inhibitor HMPSNE. The following applies: D-cysteine 100 μM and/or HMPSNE. The assay is classed as cell-based, human. On the procedure: (§3) A549 lung tumor cells (FIG. 10A) or MDA-MB-231 breast tumor cells (FIG. 10B) were cultured in complete media (CM) in the absence or presence of 100 μM D-cysteine (D-Cys), with (grey bars) or without (black bars) HMPSNE, a cell-membrane permeable inhibitor of 3-MST. Cell numbers were counted after 72 hours. * P<0.05, ** P<0.01, *** P<0.001, **** P<0.0001.
(§4) Furthermore, as mentioned above, it exerts toxic effects via iron chelation. Therefore, to survive D cysteine, cells need to increase its catabolism. There are two main pathways for cysteine catabolism: one is via its enzymatic breakdown to produce hydrogen sulfur and organic intermediates that will serve as carbon sources, and the second is via oxidative metabolism through cysteine dioxygenase 48. Inhibition of cysteine catabolism can be obtained with inhibitors of the key enzymes participating in this pathway. We have used a commercially available inhibitor of 3-MST, HMPSNE 49 to inhibit the enzyme in A549 lung cancer cells and in MDA-MB-231 breast cancer cells in the presence or absence of D cysteine.

In assay [4] the test system is MDA-MB-231 breast cancer cells. The experiment in a line: Proliferation of MDA-MB-231 cells with D-cysteine and 3-MST inhibitor HMPSNE. The assay is classed as cell-based. The conditions noted are these: D-cysteine 100 μM and/or HMPSNE. The procedure:
as §3, §4

On to `N[C@H](CSSC[C@@H](N)C(=O)O)C(=O)O` [D-cystine], for which the “proliferation of A549 cells” value with A549 cells [1] is given as “inhibited the proliferation”.
For the compound `N[C@@H](CS)C(=O)O` [L-cysteine, reference compound], the “inhibitory effect on oxygen consumption rate (OCR)” value in assay [2] is “responsible for the observed effect”. The “proliferation of A549 cells” value with A549 cells [1] is “had no effect”; in the assay on A549 cells [1] (listed as L form of cysteine), “no adverse effect”.
As to `COC(=O)C[C@H](NC(=O)[C@H](C)NC(=O)[C@@H](NC(=O)OCc1ccccc1)C(C)C)C(=O)CF` [zVAD-fmk, reference compound] (Cbz-Val-Ala-Asp(OMe)-CH2F), the “protection from D-cysteine-induced cell death by added pan-caspase inhibitor” value in the assay with A549 cells [3] is “did not protect the cells”.
Regarding `Cc1cc(=O)[nH]c(SCC(=O)c2cccc3ccccc23)n1` [HMPSNE], the “cell proliferation (cell numbers after 72 hours), A549” value with A549 lung cancer cells is “significant impact; also recorded: potentiates the anti-proliferative effect of D-cysteine”. In assay [4], the “cell proliferation (cell numbers after 72 hours), MDA-MB-231” value is reported as “significant impact; also recorded: potentiates the anti-proliferative effect of D-cysteine”.
